A short description of series [1]: Stability study of radiprodil solid forms (dihydrate vs anhydrous form A). The note with it: in presence of water. The series is classed as physicochemical.
Series [2] can be described thus: Dissolution test, USPII paddle apparatus, 0.5% sodium lauryl sulphate solution in water. The conditions noted are these: without reconstitution in SYRSPEND SF and water prior to the test; FIG. 2. The series is classed as physicochemical. How it is done: This study summarizes dissolution experiments preformed on the radiprodil drug substance and on the drug product including two drug loadings with and without reconstitution in SYRSPEND® and water prior to the dissolution test.
All dissolution experiments were performed on six vessels and the comparative curves were plotted using the average of them.
Some dissolution experiments were performed using prior to the dissolution a reconstitution in Syrpend® and water. In that case, the reconstitution was prepared and let under stirring for 1 night prior to the dissolution test. In order to mimic the clinical pharmacy manual, an additional test was performed with an extemporaneous suspension (15 min under stirring prior to the dissolution).
Dissolution and high performance liquid chromatography (HPLC) parameters used in the experiments are provided below in Tables […] and 12, respectively.
Radiprodil, as the dihydrate and Form A, as well as Form A containing granules (1% and 10% as described above) and blends of dihydrate and Form A (1% and 10% blends of dihydrate form and Form A) were submitted to dissolution tests in sodium lauryl sulfate (0.5% in water). […]

Molecules are shown by their SMILES.

As for `O=C(Nc1ccc2[nH]c(=O)oc2c1)C(=O)N1CCC(Cc2ccc(F)cc2)CC1` (single isomer, unassigned) [anhydrous form A, Radiprodil], the “Stability of solid form” value in series [1] is “more stable than the dihydrate even in presence of water”.
For the compound `O=C(Nc1ccc2[nH]c(=O)oc2c1)C(=O)N1CCC(Cc2ccc(F)cc2)CC1` [dihydrate form, Radiprodil], the Dissolution profile result in series [2] is listed as “more rapid in aqueous media than the one of anhydrous form A”.

The values are drawn from patent publication US20250127770A1, “FORMULATIONS OF RADIPRODIL” (GRIN Therapeutics, Inc., priority 2021, published 2025).
